From ChEMBL document CHEMBL2385010, “Discovery of aryl ureas and aryl amides as potent and selective histamine H3 receptor antagonists for the treatment of obesity (part I)” (Bioorg Med Chem Lett, 2013)
In brackets after ≈: the same amount, converted by molar mass.

What was measured:
[1] = target: Histamine H2 receptor (Homo sapiens) (UniProt P25021); assay: Antagonist activity at human histamine H2 receptor assessed as inhibition of calcium mobilization at 10 uM by FLIPR assay relative to control; format: functional
Sequence of Histamine H2 receptor (Homo sapiens) (P25021 whole entry): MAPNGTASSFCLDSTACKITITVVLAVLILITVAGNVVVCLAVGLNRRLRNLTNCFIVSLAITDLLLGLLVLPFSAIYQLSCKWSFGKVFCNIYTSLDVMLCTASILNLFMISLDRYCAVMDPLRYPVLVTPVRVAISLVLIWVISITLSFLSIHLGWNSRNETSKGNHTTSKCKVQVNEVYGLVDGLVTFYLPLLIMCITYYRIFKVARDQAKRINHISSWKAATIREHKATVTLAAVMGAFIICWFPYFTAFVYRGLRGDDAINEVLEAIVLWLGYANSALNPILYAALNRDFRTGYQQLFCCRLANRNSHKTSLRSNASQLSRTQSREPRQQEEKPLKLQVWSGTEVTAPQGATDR

[2] = target: T1, Histamine H3 receptor (Homo sapiens, UniProt Q9Y5N1); assay: Antagonist activity at human histamine H3 receptor expressed in HEK293 cells assessed as inhibition of calcium mobilization by FLIPR assay; format: functional, cell-based
T1 sequence (Q9Y5N1 whole entry): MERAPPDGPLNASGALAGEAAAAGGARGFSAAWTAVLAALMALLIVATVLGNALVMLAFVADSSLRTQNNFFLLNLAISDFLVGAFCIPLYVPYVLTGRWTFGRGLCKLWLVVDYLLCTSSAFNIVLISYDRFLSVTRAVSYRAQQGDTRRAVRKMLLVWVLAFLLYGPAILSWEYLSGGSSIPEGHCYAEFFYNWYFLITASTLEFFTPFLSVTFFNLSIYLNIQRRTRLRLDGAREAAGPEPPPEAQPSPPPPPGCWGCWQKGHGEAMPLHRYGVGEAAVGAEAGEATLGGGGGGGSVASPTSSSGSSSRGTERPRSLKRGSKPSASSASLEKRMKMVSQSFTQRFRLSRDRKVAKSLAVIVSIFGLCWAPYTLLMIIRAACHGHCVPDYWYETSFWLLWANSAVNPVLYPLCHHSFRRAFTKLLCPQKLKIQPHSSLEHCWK

[3] = target: T1, Histamine H3 receptor; assay: Antagonist activity at human histamine H3 receptor in human T-REx-293 cells assessed as inhibition of basal GTPgammaS binding at 10 uM after 90 mins by scintillation counting analysis relative to control; format: functional, cell-based; conditions: HEK293
[4] = target: Histamine H1 receptor (Homo sapiens) (UniProt P35367); assay: Antagonist activity at human histamine H1 receptor assessed as inhibition of calcium mobilization at 10 uM by FLIPR assay relative to control; format: functional
Sequence of Histamine H1 receptor (Homo sapiens) (P35367 whole entry): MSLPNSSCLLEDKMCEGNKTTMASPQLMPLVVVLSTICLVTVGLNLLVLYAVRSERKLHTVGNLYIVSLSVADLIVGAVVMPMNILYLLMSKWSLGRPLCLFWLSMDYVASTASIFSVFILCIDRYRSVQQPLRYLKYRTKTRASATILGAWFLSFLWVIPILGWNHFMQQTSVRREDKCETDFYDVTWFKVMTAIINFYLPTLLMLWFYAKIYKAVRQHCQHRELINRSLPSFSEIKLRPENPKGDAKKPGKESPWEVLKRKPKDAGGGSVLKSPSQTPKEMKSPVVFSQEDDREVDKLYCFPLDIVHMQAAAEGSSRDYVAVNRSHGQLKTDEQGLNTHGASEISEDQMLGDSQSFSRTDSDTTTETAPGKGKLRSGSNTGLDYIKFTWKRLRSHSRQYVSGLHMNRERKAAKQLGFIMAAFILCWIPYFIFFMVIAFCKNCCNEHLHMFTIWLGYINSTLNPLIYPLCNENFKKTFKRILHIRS

[5] = target: Melanin-concentrating hormone receptor 1 (Homo sapiens) (UniProt Q99705); assay: Antagonist activity at human MCH1R assessed as inhibition of calcium mobilization at 10 uM by FLIPR assay relative to control; format: functional
Sequence of Melanin-concentrating hormone receptor 1 (Homo sapiens) (Q99705 whole entry): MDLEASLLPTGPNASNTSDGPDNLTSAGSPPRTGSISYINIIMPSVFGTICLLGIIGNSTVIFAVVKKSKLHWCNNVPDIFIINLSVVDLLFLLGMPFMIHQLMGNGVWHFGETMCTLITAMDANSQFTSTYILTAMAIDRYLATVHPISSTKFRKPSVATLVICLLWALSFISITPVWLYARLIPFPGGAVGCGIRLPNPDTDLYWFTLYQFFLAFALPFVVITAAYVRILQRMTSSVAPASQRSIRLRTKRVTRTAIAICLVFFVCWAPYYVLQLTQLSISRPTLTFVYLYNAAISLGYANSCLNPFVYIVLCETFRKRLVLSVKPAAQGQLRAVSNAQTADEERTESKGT

[6] = Solubility of the compound; format: physicochemical
[7] = target: hERG (KCNH2) (Homo sapiens, UniProt Q12809); assay: Inhibition of human ERG at 10 uM relative to control
Sequence of hERG (KCNH2) (Q12809 whole entry): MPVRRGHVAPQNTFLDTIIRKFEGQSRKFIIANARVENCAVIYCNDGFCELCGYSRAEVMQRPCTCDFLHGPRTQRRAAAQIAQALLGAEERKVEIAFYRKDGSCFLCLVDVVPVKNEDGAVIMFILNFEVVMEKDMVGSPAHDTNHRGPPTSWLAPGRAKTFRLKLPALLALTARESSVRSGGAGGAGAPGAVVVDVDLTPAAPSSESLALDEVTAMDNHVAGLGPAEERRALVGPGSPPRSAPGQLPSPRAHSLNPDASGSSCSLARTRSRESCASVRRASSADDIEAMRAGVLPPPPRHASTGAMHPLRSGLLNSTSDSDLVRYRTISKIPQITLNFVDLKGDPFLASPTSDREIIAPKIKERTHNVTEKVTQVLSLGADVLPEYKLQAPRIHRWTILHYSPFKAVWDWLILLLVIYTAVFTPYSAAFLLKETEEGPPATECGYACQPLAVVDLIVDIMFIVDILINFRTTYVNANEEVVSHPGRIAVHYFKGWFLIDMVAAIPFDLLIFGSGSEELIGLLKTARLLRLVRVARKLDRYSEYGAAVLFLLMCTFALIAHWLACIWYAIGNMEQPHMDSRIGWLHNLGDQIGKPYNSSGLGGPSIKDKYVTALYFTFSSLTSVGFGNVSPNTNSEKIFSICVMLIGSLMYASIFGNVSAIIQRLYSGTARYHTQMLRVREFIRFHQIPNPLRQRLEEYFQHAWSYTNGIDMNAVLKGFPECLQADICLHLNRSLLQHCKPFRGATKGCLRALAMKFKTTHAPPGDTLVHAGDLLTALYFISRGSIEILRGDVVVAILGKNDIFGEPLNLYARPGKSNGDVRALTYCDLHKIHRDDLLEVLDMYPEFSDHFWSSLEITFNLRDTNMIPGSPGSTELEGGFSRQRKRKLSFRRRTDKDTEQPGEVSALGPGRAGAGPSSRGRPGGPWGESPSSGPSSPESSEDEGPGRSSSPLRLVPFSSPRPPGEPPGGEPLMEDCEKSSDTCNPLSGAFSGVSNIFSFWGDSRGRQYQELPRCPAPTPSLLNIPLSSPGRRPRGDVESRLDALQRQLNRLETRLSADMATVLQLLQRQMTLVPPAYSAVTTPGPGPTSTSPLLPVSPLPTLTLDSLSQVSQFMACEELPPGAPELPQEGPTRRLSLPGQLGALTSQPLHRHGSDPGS

[8] = target: Histamine receptor H3 (Macaca mulatta, UniProt Q865E1); assay: Displacement of [3H]N-alpha-methylhistamine from cloned rhesus monkey histamine H3 receptor transfected in CHO cells after 1 hr by scintillation counting analysis; format: cell-based
Sequence of Histamine receptor H3 (Q865E1 whole entry): as the sequence (Q9Y5N1 whole entry) above, with D148N, A240G, V282A, A289T, T290A, V300A, H442Q counted along it

[9] = target: Histamine H3 receptor (Rattus norvegicus, UniProt Q9QYN8); assay: Displacement of [3H]N-alpha-methylhistamine from cloned rat histamine H3 receptor transfected in CHO cells after 1 hr by scintillation counting analysis; format: cell-based
Sequence of Histamine H3 receptor (Rattus norvegicus, UniProt Q9QYN8) (Q9QYN8 whole entry): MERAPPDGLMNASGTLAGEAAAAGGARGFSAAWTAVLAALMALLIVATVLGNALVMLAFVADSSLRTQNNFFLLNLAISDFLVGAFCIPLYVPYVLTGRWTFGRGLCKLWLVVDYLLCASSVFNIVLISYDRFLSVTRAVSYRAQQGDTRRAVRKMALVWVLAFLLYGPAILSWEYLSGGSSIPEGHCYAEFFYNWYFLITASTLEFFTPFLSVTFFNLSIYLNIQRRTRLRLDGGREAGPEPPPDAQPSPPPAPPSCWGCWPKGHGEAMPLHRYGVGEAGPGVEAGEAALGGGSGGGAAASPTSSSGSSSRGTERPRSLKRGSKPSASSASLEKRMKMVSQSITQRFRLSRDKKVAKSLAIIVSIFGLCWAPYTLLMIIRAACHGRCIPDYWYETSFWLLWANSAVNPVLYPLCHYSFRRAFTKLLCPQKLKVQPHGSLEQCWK

[10] = target: T1, Histamine H3 receptor; assay: Displacement of [3H]N-alpha-methylhistamine from cloned human histamine H3 receptor transfected in CHO cells after 1 hr by scintillation counting analysis; format: cell-based
[11] = Drug metabolism in mouse liver microsomes; format: ADME, Microsome; conditions: read-out: Drug metabolism
[12] = Drug metabolism in human liver microsomes; format: ADME, Microsome; conditions: read-out: Drug metabolism
[13] = Drug metabolism in rat liver microsomes; format: ADME, Microsome; conditions: read-out: Drug metabolism

SMILES | inhibition [1] [%] | IC50 [2] [nM] | inhibition [3] [%] | inhibition [4] [%] | inhibition [5] [%] | further results
Cc1cc(NC(=O)NCc2cc(Cl)cc(Cl)c2)ccc1N1CCC(N2CCCC2C)C1 (configuration not stated) | < 40 | 1.1 | 130 | < 40 | < 40 | –
CN(C)CCOc1ccc(NC(=O)Nc2ccc(F)cc2F)cc1 | – | 149 | 102 | – | – | –
Cc1cc(N2CCC(N3CCCC3C)C2)ccc1NC(=O)Nc1cc(Cl)cc(Cl)c1 (configuration not stated) | < 40 | 0.9 | 126 | < 40 | < 40 | solubility [6]: 10.5 µg/mL (≈ 23.5 µM); inhibition at 10 µM [7]: 74%
CC(=O)N(C)C1CCN(C(=O)Nc2ccc(N3CCC(N4CCCC4C)C3)c(C)c2)C1 (configuration not stated) | < 40 | 1.1 | 118 | < 40 | < 40 | –
Cc1cc(N2CCC(N3CCCC3C)C2)ccc1NC(=O)NC1CCCCC1 (configuration not stated) | < 40 | 0.2 | 110 | < 40 | < 40 | –
CC1CCCN1C1CCN(c2ccc(NC(=O)NCc3cc(Cl)cc(Cl)c3)cc2)C1 (configuration not stated) | < 40 | 0.2 | 144 | < 40 | < 40 | Ki [8]: 7.1 nM
CC(=O)N(C)C1CCN(C(=O)Nc2ccc(N3CCC(N4CCCC4C)C3)cc2)C1 (configuration not stated) | < 40 | 1.1 | 109 | < 40 | < 40 | –
CC(=O)N1CCN(C(=O)Nc2ccc(N3CCC(N4CCCC4C)C3)cc2)CC1 (configuration not stated) | < 40 | 0.5 | 127 | < 40 | < 40 | –
O=C(Nc1ccc(OCCN2CCCCC2)cc1)Nc1ccc(F)cc1F | – | 40.5 | 115 | – | – | –
O=C(Nc1ccc(OCCCN2CCCCC2)cc1)Nc1ccc(F)cc1F | – | 0.5 | 128 | – | – | Ki [9]: 33 nM; Ki [10]: 52 nM; Ki [8]: 3.4 nM
CC1CCCN1C1CCN(c2ccc(NC(=O)Nc3ccc(Oc4ccccc4)cc3)cc2)C1 (configuration not stated) | < 40 | 1.4 | 113 | < 40 | < 40 | Ki [8]: 46.8 nM
Cc1cc(NC(=O)NC2CCCCC2)ccc1N1CCC(N2CCCC2C)C1 (configuration not stated) | < 40 | 0.2 | 130 | < 40 | < 40 | –
Cc1cc(NC(=O)N2CCN(C)CC2)ccc1N1CCC(N2CCCC2C)C1 (configuration not stated) | < 40 | 1.1 | 118 | < 40 | < 40 | –
Cc1cccc(NC(=O)Nc2ccc(OCCN(C)C)cc2)c1C | – | 73.1 | 94 | – | – | –
Cc1cc(N2CCC(N3CCCC3C)C2)ccc1NC(=O)N1CCN(C)CC1 (configuration not stated) | < 40 | 0.8 | 120 | < 40 | < 40 | –
Cc1cc(NC(=O)NCc2cccs2)ccc1N1CCC(N2CCCC2C)C1 (configuration not stated) | < 40 | 0.2 | 125 | < 40 | < 40 | –
CCOc1ccc(C)cc1NC(=O)Nc1ccc(OCCN(CC)CC)cc1 | – | 9.1 | 107 | – | – | –
Cc1cc(NC(=O)Nc2ccc(Oc3ccccc3)cc2)ccc1N1CCC(N2CCCC2C)C1 (configuration not stated) | < 40 | 0.6 | 126 | < 40 | < 40 | Ki [8]: 115 nM
O=C(Nc1ccc(Cl)cc1)Nc1ccc(OCCN2CCCCC2)cc1 | – | 27.5 | 105 | – | – | –

SMILES | inhibition [1] [%] | IC50 [2] [nM] | inhibition [3] [%] | inhibition [4] [%] | inhibition [5] [%] | further results
Cc1cc(NC(=O)Nc2cc(Cl)cc(Cl)c2)ccc1N1CCC(N2CCCC2C)C1 (configuration not stated) | < 40 | 3.1 | 103 | < 40 | < 40 | –
O=C(Nc1ccc(Cl)cc1)Nc1ccc(OCCCN2CCCCC2)cc1 | – | 0.7 | 119 | – | – | –
Cc1c(Cl)cc(NC(=O)Nc2ccc(OCCCN3CCCCC3)cc2)cc1Cl | – | 0.2 | 133 | – | – | Ki [9]: 135 nM; solubility [6]: 6 µg/mL (≈ 13.7 µM); metabolised [11]: 34%; metabolised [12]: 10%; Ki [10]: 112 nM; metabolised [13]: 36%; Ki [8]: 18.2 nM
CC1CCCN1C1CCN(c2ccc(NC(=O)Nc3cc(Cl)cc(Cl)c3)cc2)C1 (configuration not stated) | < 40 | 1.2 | 103 | < 40 | < 40 | –
CCN(CC)CCOc1ccc(NC(=O)Nc2ccc(Cl)cc2Cl)cc1 | – | 39.1 | 118 | – | – | –
CCN(CC)CCOc1ccc(NC(=O)Nc2ccc(F)cc2F)cc1 | – | 111 | 117 | – | – | –
CC1CCCN1C1CCN(c2ccc(NC(=O)N3CCN(C)CC3)cc2)C1 (configuration not stated) | < 40 | 0.2 | 132 | < 40 | < 40 | –
CCN(CC)CCOc1ccc(NC(=S)Nc2ccc(OCC(C)C)cc2)cc1 | – | 0.6 | 129 | – | – | Ki [9]: 39.9 nM; Ki [10]: 16.8 nM; Ki [8]: 15.7 nM
CC1CCCN1C1CCN(c2ccc(NC(=O)NC3CCCCC3)cc2)C1 (configuration not stated) | < 40 | 0.1 | 122 | < 40 | < 40 | –
CN(C)CCc1ccc(NC(=O)Nc2ccc(CCN(C)C)cc2)cc1 | – | 6.5 | 94.7 | – | – | –
O=C(Nc1ccc(OCCCN2CCCCC2)cc1)Nc1cc(Cl)cc(Cl)c1 | < 40 | 0.5 | 125 | < 40 | < 40 | Ki [8]: 3.4 nM
CC1CCCN1C1CCN(c2ccc(NC(=O)N3CCN(c4ccccc4)CC3)cc2)C1 (configuration not stated) | < 40 | 0.4 | 122 | < 40 | < 40 | –
CC1CCCN1C1CCN(c2ccc(NC(=O)NCc3cccs3)cc2)C1 (configuration not stated) | < 40 | 0.1 | 129 | < 40 | < 40 | Ki [8]: 1.9 nM
CCN(CC)CCCOc1ccc(NC(=O)Nc2ccc(F)cc2F)cc1 | – | 7.9 | 124 | – | – | –
CC1CCCN1C1CCN(c2ccc(NC(=O)N3CCCCC3)cc2)C1 (configuration not stated) | < 40 | 0.3 | 108 | < 40 | < 40 | –
CCN(CC)CCOc1ccc(NC(=O)Nc2c(Cl)cccc2Cl)cc1 | – | 1 | 116 | – | – | –
CC(=O)N1CCN(C(=O)Nc2ccc(N3CCC(N4CCCC4C)C3)c(C)c2)CC1 (configuration not stated) | < 40 | 2.3 | 115 | < 40 | < 40 | –
CN(C)CCOc1ccc(NC(=O)Nc2ccc(Cl)cc2)cc1 | – | 16.4 | 99 | – | – | –
Cc1cccc(NC(=O)Nc2ccc(OCCCN(C)C)cc2)c1C | – | 14.7 | 125 | – | – | –
